Source: US4594238A (Regents of University of Minnesota, priority 1984, dated 1986)

Tests used:
[1] = cited from earlier work; for Benefit when given before platinum(II): given before the platinum (II); for Binding to plasma platinum: in vivo
[2] = cited from earlier work; for Bone marrow toxicity: in vivo
[3] = Protection of rats against DDP toxicity by disulfiram via stomach tube, Example 1; type: in vivo, Male F344 (Fischer) rats; details: disulfiram 2 g/kg via stomach tube 30 minutes before and 30 minutes after DDP
Procedure: Male F344 (Fischer) rats (average weight, 150 g) were obtained from the Charles River Breeding Laboratory. They were divided into groups of four rats, placed in methacrylate cages, and given National Institute of Health chow for rodents and water ad lib, for 7 days. Average weight of the rats was 180 g (range, 160-200 g) when injected.
Tetraethylthiuram disulfide (disulfiram) was obtained from Sigma Chemical Co., St. Louis MO. Sodium DDTC was prepared according to the procedure of Klopper and van der Kerk, Rec. Trav. Chim. 70:917 (1951); immediately prior to injection, it was dissolved in sterile water at a concentration of 100 mg/ml. Sodium bicarbonate was prepared in sterile water at a concentration of 50 mg/ml. All injections were carried out under brief ether anesthesia.
Otherwise, weight and BUN were determined at 5 days after injection, reportedly the time of maximal observed toxicity. Evidence of gastrointestinal toxicity was obtained qualitatively by noting the presence or absence of diarrhea 3-5 days after injection.
Disulfiram was administered to two groups of rats in lieu of NaDDTC, as described subsequently.

[4] = polar solvents; cited from earlier work
[5] = Urinary excretion of free and conjugated DDTC; type: in vivo, rats; details: combination of DDTC and acetazolamide, even when NaDDTC dose reduced by 80%
From the text: Intravenous administration was explored in an attempt to deliver larger quantities of free DDTC anion to the likely site of toxicity in the renal tubule; urinary excretion of DDTC was monitored as a means of estimating changes in tubular levels of free DDTC. The standard assay for DDTC anion utilizes a spectrophotometric determination following reaction with cupric ion to form the colored Cu(DDTC)2 complex. Unfortunately, the affinity of cupric ion for sulfur ligands is such that this metal ion will catalyze the decomposition of the DDTC glucuronide and therefore will not discriminate between free and conjugated DDTC. Ferric ion does react selectively with the free ligand, thereby providing a convenient assay for both free and total DDTC in urine.
Excretion of free and conjugated NaDDTC in the urine of rats was measured as follows. NaDDTC was administered in selected doses via intraperitoneal or intravenous injection. Rats were then placed in metabolic cages and urine was collected and analyzed at 30 minute intervals. Urine samples (0.1-5.0 ml) were added to 2 ml of a solution containing ferric nitrate (20 mM) and sodium citrate (200 mM). The dark Fe (DDTC)3 complex was extracted into chloroform (4 ml) by vortexing for 5 minutes. The mixture was chilled, centrifuged for 1 minute, and the chloroform layer separated. To this chloroform solution was added saturated aqueous cupric sulfate (2 ml), and the mixture was vortexed for 5 minutes, chilled, and centrifuged for 1 minute. The chloroform solution was separated and the Cu(DDTC)2absorbance measured at 435 nm. Free DDTC was determined by comparison of absorbance to a standard curve. Total DDTC was determined by addition of 0. 05-1.0 ml of urine to 3 ml of saturated cupric sulfate followed by incubation at 45° for 30 minutes. The resulting Cu(DDTC)2 complex was extracted into chloroform and analyzed as described above. DDTC-glucuronide excretion was determined by subtraction of free from total DDTC.

N[C@@H](CS)C(=O)O [cysteine]
Benefit when given before platinum(II) [1]: Some benefit was reported | Binding to plasma platinum [1]: may have the potential to bind to plasma platinum

chlorohydroxy-isopropylamineplatinum [CHIP]
Kidney toxicity ([2]; compared to first generation agents): low in kidney toxicity | Bone marrow toxicity [2]: high in bone marrow toxicity

CCN(CC)C(=S)SSC(=S)N(CC)CC [disulfiram, Tetraethylthiuram disulfide]
BUN in survivors [3]: 55 to 180 mg/dL | Necropsy, intestine [3]: grossly hemorrhagic fluid-filled intestine | Weight loss and BUN levels in the survivors [3]: highly variable | Animals that died before day 5 ([3]; in each group): Fifty | Solubility in polar solvents [4]: relatively low solubility, particularly in polar solvents

N.N.O=C([O-])C1(C(=O)[O-])CCC1.[Pt+2] [CBDCA]
Bone marrow toxicity [2]: increased bone marrow toxicity

CC(=O)Nc1nnc(S(N)(=O)=O)s1 [acetazolamide, reference compound]
Renal excretion of DDTC with acetazolamide [5]: significant increases in renal excretion of DDTC

CC(C)(S)[C@@H](N)C(=O)O [penicillamine]
Benefit when given before platinum(II) [1]: Some benefit was reported | Binding to plasma platinum [1]: may have the potential to bind to plasma platinum

NCC1(CN)CCCCC1.O=S(=O)([O-])[O-].[Pt+2] [TNO-6]
Bone marrow toxicity [2]: increased bone marrow toxicity
